According to patent publication US12383520B2, “Compound and composition for use in the treatment of premenstrual syndrome and/or premenstrual dysphoric disorder” (SYNAPHARM […], priority 2019, dated 2025):

Key:
[1] = stability over time of dihydrate versus anhydrous form; assay type: physicochemical; conditions: compared to non-dihydrate (anhydrous) magnesium N-acetyl-taurinate
[2] = treatment of premenstrual syndrome and/or premenstrual dysphoric disorder (reduction of symptoms); assay type: in vivo; conditions: compared with other compounds, particularly other magnesium salts (like magnesium oxide)

magnesium N-acetyl-taurinate dihydrate
stability over time [1]: increased as compared to non-dihydrate magnesium N-acetyl-taurinate

magnesium N-acetyl-taurinate
effectiveness (reduction of symptoms) in the treatment of premenstrual syndrome and/or premenstrual dysphoric disorder [2]: more effective (reduction of symptoms) than the other compounds
